Source: patent publication US20190167568A1, “Transdermal Drug Delivery System and Method for Using Same” (SENJU USA, INC., priority 2016, published 2019)

Details: pH 8
From the text: In the present invention, the distribution coefficient (octanol/water distribution coefficient) may be adopted as the index of “water soluble” and “liposoluble” in the “water soluble steroid” and the “liposoluble steroid.” The distribution coefficient can be expressed in log D in consideration of the influence of pH, and water solubility is indicated by a minus value while liposolubility is indicated by a plus value.
The distribution coefficient can be obtained according to the method of JIS […] or JIS […].

Substance | distribution coefficient (log D)
dexamethasone metasulfobenzoate sodium | −2
prednisolone sodium phosphate | 0
